Experimental data: patent publication US8333970B2, “Methods of monitoring the efficacy of anti-CD40 antibodies in treating a subject having an inflammatory or autoimmune disease” (Novartis AG, priority 2005, dated 2012)
Entries after “also recorded” stand apart in the source; their conditions may differ.

Tests used:
[1] = system: CD40-expressing target cells; test: Antibody dependent cellular cytotoxicity (ADCC); format: cell-based; conditions: native antibodies
Excerpt: (§1) 2, 2000, and PCT International Application No. PCT/US01/30857, also titled “Human Anti-CD40 Antibodies,” filed Oct. 2, 2001, both of which are herein incorporated by reference in their entirety.
Clones from 7 other hybridomas were identified as having antagonistic activity. Based on their relative antagonistic potency and ADCC activities, two hybridoma clones were selected for further evaluation (Table 1 below). They are named 131.2F8.5.9 (5.9) and 153.8E2.D10.D6.12.12 (12.12).

[2] = system: B cells from normal human subjects; test: In vitro proliferation of normal human B cells / lymphocytes; format: cell-based
Excerpt: as §1
(§2) 4, 2003, Nov. 26, 2003, and Apr. 27, 2004, and assigned U.S. Patent Application Nos. 60/517,337 , 60/525,579, and 60/565,710, respectively, and International Patent Application No. PCT/US2004/037152, also entitled “Antagonist Anti-CD40 Monoclonal Antibodies and Methods for Their Use,” filed Nov. 4, 2004; the contents of each of which are herein incorporated by reference in their entirety.

[3] = system: cancer cells from NHL and CLL patients; test: In vitro CD40 ligand-mediated proliferation of patient cancer cells; format: cell-based, human
Excerpt: as §2

[4] = system: primary cancer cells from NHL patients; test: ADCC on primary cancer cells; format: cell-based, human; conditions: in vitro
Excerpt: as §2

normal human B cells [5] = test: Western blot of phosphorylated signaling proteins in sCD40L-stimulated B cells; format: cell-based; conditions: 1 μg/ml sCD40L, 20 minutes
Procedure: In these experiments, 1.0×10^6 normal human B cells from healthy donors (percent purity between 85-95%) were stimulated with 1 μg/ml sCD40L (Alexis Corporation, Bingham, Nottinghamshire, UK). […] Cells were collected at 0 and 20 minutes. Phosphorylated IKKα (Ser180) and IKKβ (Ser 181) and total IKKβ controls were detected in cell lysates by Western blot.
In these experiments, 1.0×10^6 normal human B cells from healthy donors (percent purity between 85-95%) were serum starved in 1% FBS-containing media and stimulated with 1 μg/ml sCD40L (Alexis Corporation, Bingham, Nottinghamshire, UK). […] Cells were collected at 0 and 20 minutes. Phospho-IKKα, phospho-IKKβ, total IKKβ, phospho-ERK, total ERK, phospho-AKT, total AKT, phospho-p38, and total p38 were detected in cell lysates by Western blot.
In these experiments, 1.0×10^6 normal human B cells from healthy donors (percent purity between 85-95%) were serum starved in 1% FBS-containing media and stimulated with 1 μg/ml sCD40L (Alexis Corporation, Bingham, Nottinghamshire, UK). […] Cells were collected at 0 and 20 minutes. Phospho-ERK, phospho-AKT, total AKT, phospho-IKKα/β, and […] were detected in cell lysates by Western blot.

normal human B cells [6] = test: Western blot of XIAP and cleaved PARP without sCD40L stimulation; format: cell-based; conditions: 10 μg/ml antibody, no sCD40L, 0 to 16 hours
Procedure: Cells were collected at 0, 4, 14, and 16 hours. XIAP, cleaved PARP, and β-actin controls were detected in cell lysates by Western blot.

[7] = target: T1, CD40-TRAF2/3 signaling complex (Homo sapiens, UniProt P25942); test: CD40 immunoprecipitation, TRAF2/TRAF3 Western blot; format: cell-based; conditions: 1 μg/ml sCD40L, 20 minutes
T1 construct: normal human B cells from healthy donors; endogenous in cells; host or cells: normal human B cells from healthy donors
Procedure: In these experiments, 4.0×10^6 normal human B cells from healthy donors (percent purity between 85-95%) were serum starved for four hours in 1% FBS-containing media and stimulated with 1 μg/ml sCD40L (Alexis Corporation, Bingham, Nottinghamshire, UK) for 20 minutes. Cells were collected at 0 and 20 minutes. CD40 was immunoprecipitated using polyclonal anti-CD40 (Santa Cruz Biotechnology, CA), and was probed in a Western blot with anti-TRAF2 mAb (Santa Cruz Biotechnology, CA), anti-TRAF3 mAb (Santa Cruz Biotechnology, CA), and anti-CD40 mAb (Santa Cruz Biotechnology, CA).

monocytes [8] = test: CD40L-induced cytokine secretion, Meso Scale Discovery multi-array; format: cell-based, human; conditions: 24 hours
Procedure: (§3) Cells (1×10^5 cells per well) were cultured in a 96-well plate in the presence or absence of CD40L ([…], formaldehyde fixed CHO cells, 2×10^5 per well). […] Production of hIL-6, hIL-8, hIL-10, hTNF-α; hGM-CSF, hIL-1b, hIL-12p70, MCP-1, and MIP-1β beta was measured by Meso Scale Discovery® multi-array system (Meso Scale Discovery, Gaithersburg, Md.).

normal B cells = test: as above; format: cell-based, human; conditions: 24 hours; for % inhibition of CD40L-induced MCP-1 secretion / % inhibition of CD40L-induced MIP-1β secretion / % inhibition of CD40L-induced hIL-6 secretion / % inhibition of CD40L-induced hIL-8 secretion / % inhibition of CD40L-induced hIL-10 secretion / % inhibition of CD40L-induced hTNF-α secretion: normal B cells
Procedure: as §3

monocytes [9] = test: CD40L-induced production of VEGF; format: cell-based
Excerpt: In another experiment, CD40L-induced production of VEGF in monocytes is examined in a manner similar to that described above.

normal human B cells [10] = test: Western blot of survival and signaling markers, rhsCD40L-stimulated B cells (Example 5, FIG. 1); format: cell-based
Excerpt: Cells were lysed and whole cell lysates resolved by SDS-PAGE and Western blotting using antibodies specific to human cPARP, Mcl-1, Bcl-xl, p-Akt, and p-p38 MAPK. All membranes were stripped and re-probed for either β-actin or total Akt or p38 MAPK protein, as appropriate.

[11] = system: pre-clinical tumor models; test: Pre-clinical tumor models; format: in vivo
[12] = 2 μg/ml rhsCD40L, 10 μg/ml antibody, 24 hr

T1 sequence (P25942 21-277, one chain of several): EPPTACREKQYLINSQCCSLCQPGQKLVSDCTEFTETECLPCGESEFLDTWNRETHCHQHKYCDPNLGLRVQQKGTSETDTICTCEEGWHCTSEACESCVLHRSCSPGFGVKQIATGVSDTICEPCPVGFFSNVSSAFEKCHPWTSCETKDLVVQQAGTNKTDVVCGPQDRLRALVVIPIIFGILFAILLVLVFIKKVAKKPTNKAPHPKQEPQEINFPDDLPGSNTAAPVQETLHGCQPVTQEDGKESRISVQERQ

CHIR-12.12: fully human anti-CD40 monoclonal antibody of the IgG1 isotype, hybridoma 153.8E2.D10.D6.12.12, ATCC PTA-5543, SEQ ID NO:2 and 4
ADCC activity, killing of CD40-expressing target cells [1]: have ADCC activity; also recorded: able to kill CD40-expressing target cells | CD40L-induced lymphocyte proliferation ([2]; human peripheral blood lymphocytes): inhibits CD40L-induced lymphocyte proliferation | effect on CD40 ligand-mediated proliferation of normal B cells ([2]; in vitro): act as antagonist anti-CD40 antibodies; also recorded: inhibit in vitro CD40 ligand-mediated proliferation of normal B cells | induction of proliferation of human lymphocytes (agonist activity) ([2]; lymphocytes from normal subjects, antibody alone): do not induce strong proliferation; also recorded: does not induce the proliferation of human peripheral blood lymphocytes | CD40 ligand-mediated proliferation of cancer cells [3]: inhibiting in vitro CD40 ligand-mediated proliferation of cancer cells from NHL and CLL patients | killing of primary cancer cells by ADCC [4]: kill primary cancer cells from NHL patients by ADCC | phosphorylation of IKKα (Ser180) and IKKβ (Ser 181) (normal human B cells [5]; 10 μg/ml antibody): abrogated this response to sCD40L stimulation | IKKα/β, ERK, AKT and p38 phosphorylation (normal human B cells [5]; serum starved, 1 and 10 μg/ml antibody): inhibited phosphorylation; also recorded: abrogated the effects of sCD40L stimulation on these signaling pathways | phospho-ERK, phospho-AKT, phospho-IKKα/β, compared with PI3K/AKT and MEK inhibitors (normal human B cells [5]; serum starved): abrogated the phosphorylation of all of these signal transduction molecules | apoptosis (cleaved PARP, XIAP) without sCD40L stimulation (normal human B cells [6]): did not trigger these apoptotic effects; also recorded: does not trigger apoptosis in normal human B cells without CD40L stimulation | CD40 expression [7]: no changes in CD40 expression | formation of the CD40-TRAF2/3 signaling complex [7]: abrogated formation of the CD40-TRAF2/3 signaling complex | CD40L-induced production of hIL-10, hTNF-α, hIL-8, hIL-6, MCP-1 and MIP-1β (monocytes [8]; monocytes (n=1), 10 μg/ml): inhibited CD40L-induced monocyte production | % inhibition of CD40L-induced MCP-1 secretion (monocytes [8]; monocytes, Donor 1, 10 μg/ml): 92.6% | % inhibition of CD40L-induced MIP-1β secretion (monocytes [8]; monocytes, Donor 1, 10 μg/ml): 32.4% | % inhibition of CD40L-induced hIL-6 secretion (monocytes [8]; monocytes, Donor 1, 10 μg/ml): 64.9% | % inhibition of CD40L-induced hIL-8 secretion (monocytes [8]; monocytes, Donor 1, 10 μg/ml): 43.7% | % inhibition of CD40L-induced hIL-10 secretion (monocytes [8]; monocytes, Donor 1, 10 μg/ml): 58.5% | % inhibition of CD40L-induced hTNF-α secretion (monocytes [8]; monocytes, Donor 1, 10 μg/ml): 60.1% | cytokine production with antibody alone (agonistic activity) (normal B cells; absence of CD40L, 10 μg/ml): did not produce any of the cytokines above background levels | CD40L-induced production of all cytokines (normal B cells; normal B cells (n=3), 10 μg/ml): inhibited production of all cytokines | % inhibition of CD40L-induced MCP-1 secretion (normal B cells; Donor 1, 10 μg/ml): 55.3% | % inhibition of CD40L-induced MIP-1β secretion (normal B cells; Donor 1, 10 μg/ml): 54.4% | % inhibition of CD40L-induced hIL-6 secretion (normal B cells; Donor 1, 10 μg/ml): 92.2% | % inhibition of CD40L-induced hIL-8 secretion (normal B cells; Donor 1, 10 μg/ml): 98.2% | % inhibition of CD40L-induced hIL-10 secretion (normal B cells; Donor 1, 10 μg/ml): 90.5% | % inhibition of CD40L-induced hTNF-α secretion (normal B cells; Donor 1, 10 μg/ml): 92.8% | % inhibition of CD40L-induced MIP-1β secretion (normal B cells; Donor 2, 10 μg/ml): 92% | % inhibition of CD40L-induced hIL-6 secretion (normal B cells; Donor 2, 10 μg/ml): 99.9% | % inhibition of CD40L-induced hIL-8 secretion (normal B cells; Donor 2, 10 μg/ml): 84.7% | % inhibition of CD40L-induced hTNF-α secretion (normal B cells; Donor 2, 10 μg/ml): 97.4% | % inhibition of CD40L-induced MCP-1 secretion (normal B cells; Donor 3, 10 μg/ml): 25.7% | % inhibition of CD40L-induced MIP-1β secretion (normal B cells; Donor 3, 10 μg/ml): 92.5% | % inhibition of CD40L-induced hIL-6 secretion (normal B cells; Donor 3, 10 μg/ml): 99.3% | % inhibition of CD40L-induced hIL-8 secretion (normal B cells; Donor 3, 10 μg/ml): 99.5% | % inhibition of CD40L-induced hIL-10 secretion (normal B cells; Donor 3, 10 μg/ml): 94.4% | % inhibition of CD40L-induced hTNF-α secretion (normal B cells; Donor 3, 10 μg/ml): 98.5% | CD40L-induced production of VEGF (monocytes [9]): inhibit CD40L-induced production of VEGF | expression of anti-apoptotic proteins Mcl-1 and Bcl-xl (normal human B cells [10]; [12]): inhibited the expression of the anti-apoptotic proteins Mcl-1 and Bcl-xl | phosphorylation of Akt and p38 MAPK (normal human B cells [10]; [12]): inhibiting the phosphorylation of the downstream signaling proteins | CD40L-induced signaling and survival of normal human B cells (normal human B cells [10]; FIG. 1): blocked | anti-tumor potency compared with rituximab [11]: more potent anti-tumor antibody than is rituximab
